Where “and” joins values, the source holds several entries; their conditions need not be identical. Identical values can stand only once.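 Growth conditions: 96-well plates. Treatment: test compound, 48 hours, 5 concentrations. Analysis: linear interpolation between bracketing concentrations; unreached endpoints set to highest concentration. GI50 = concentration required for 50% inhibition of growth. The concentration for full growth arrest is given as TGI.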
Columns and labels:
Assay in all cases: growth of human tumour cells (NCI), 48 h
MDA-MB-435 = test system: MDA-MB-435
NCI-H522 lung = test system: NCI-H522 lung
COLO 205 colon = test system: COLO 205 colon
UACC-62 melanoma = test system: UACC-62 melanoma
SF-268 CNS = test system: SF-268 CNS
SK-MEL-28 melanoma = test system: SK-MEL-28 melanoma
OVCAR-5 ovarian = test system: OVCAR-5 ovarian
HL-60(TB) leukemia = test system: HL-60(TB) leukemia
RPMI-8226 leukemia = test system: RPMI-8226 leukemia
U251 CNS = test system: U251 CNS

SMILES | GI50 (MDA-MB-435) | TGI (MDA-MB-435) | GI50 (NCI-H522 lung) | TGI (NCI-H522 lung) | GI50 (COLO 205 colon) | TGI (COLO 205 colon) | GI50 (UACC-62 melanoma) | TGI (UACC-62 melanoma) | GI50 (SF-268 CNS) | TGI (SF-268 CNS) | GI50 (SK-MEL-28 melanoma) | TGI (SK-MEL-28 melanoma) | GI50 (OVCAR-5 ovarian) | TGI (OVCAR-5 ovarian) | GI50 (HL-60(TB) leukemia) | TGI (HL-60(TB) leukemia) | GI50 (RPMI-8226 leukemia) | TGI (RPMI-8226 leukemia) | GI50 (U251 CNS) | TGI (U251 CNS)
CC([C@H]1CCC2C3CCC4C(=O)C(NC=O)=CC[C@]4(C)C3CC[C@@]21C)N(C)C (stereo not given in full) | 2.81 µM | > 29.9 µM | 8.2 µM | > 31.2 µM | 1.75 µM | 3.4 µM | 1.94 µM | 3.98 µM | 2.17 µM | 5.48 µM | 1.86 µM | 3.55 µM | 8.45 µM | 24.9 µM | 1.86 µM | 4.95 µM | 2.75 µM | 18 µM | 3.43 µM | 15.2 µM
CN1CCN(c2nc(C3=C(c4c[nH]c5ccccc45)C(=O)NC3=O)c3ccccc3n2)CC1 | 9.08 µM and 12.4 µM | 19.4 µM and 26.1 µM | 11.3 µM and 15.1 µM | 23.7 µM and 32.9 µM | 8 µM and 11.4 µM | 17.3 µM and 24.5 µM | 14.4 µM and 16.2 µM | 35.2 µM and 30.7 µM | 17.2 µM and 17.7 µM | 40.6 µM and 36.6 µM | 11.2 µM and 17.7 µM | 20.8 µM and 32.8 µM | 28.7 µM and 34.5 µM | 65 µM and > 100 µM | 12.3 µM and 15.1 µM | 36.6 µM and 35.6 µM | 12.6 µM | 37.6 µM | 22.5 µM and 13.4 µM | 65 µM and 27.7 µM
Cc1cc(C)c2nc(Nc3nc(C)c(C)c(=O)[nH]3)nc(C)c2c1 | 3.13 µM | 13.2 µM | 1.63 µM | 6.33 µM | 2.51 µM | 7.51 µM | 2.08 µM | 5.5 µM | 2.82 µM | 13.8 µM | 2.35 µM | 7.64 µM | 3.01 µM | 18.5 µM | 2.53 µM | 6.98 µM | 2.13 µM | 6.21 µM | 3.18 µM | 12 µM
COC(=O)c1ccc2c(c1)[n+](=O)c(C(C)=O)c(C(F)(F)F)n2[O-] | 1.75 µM | 3.6 µM | 1.66 µM | 3.28 µM | 1.95 µM | 3.95 µM | 1.71 µM | 3.14 µM | 1.76 µM | 3.24 µM | 4.31 µM | 13.2 µM | 1.67 µM | 3.11 µM | 1.94 µM | 7.87 µM | 2.23 µM | 6.34 µM | 1.8 µM | 3.25 µM
COc1cc(C2CC(c3ccc(C)cc3)=NN2C(C)=O)ccc1Oc1ccnc2cc(Cl)ccc12 (stereo not given) | > 100 µM | > 100 µM | > 100 µM | > 100 µM | > 100 µM | > 100 µM | > 100 µM | > 100 µM | 38.4 µM | > 100 µM | > 100 µM | > 100 µM | > 100 µM | > 100 µM | > 100 µM | > 100 µM | > 100 µM | > 100 µM | 1.41 µM | > 100 µM
Nc1nc(Cl)cc2c1ncn2C1OC(CO)C(O)C1O (stereo not given) | > 100 µM | > 100 µM | > 100 µM | > 100 µM | > 100 µM | > 100 µM | > 100 µM | > 100 µM | > 100 µM | > 100 µM | > 100 µM | > 100 µM | > 100 µM | > 100 µM | > 100 µM | > 100 µM | > 100 µM | > 100 µM | > 100 µM | > 100 µM
CC(=O)c1c[nH]c2ccc(-c3ccnc(Nc4ccc(NC(=O)c5cccc(F)c5)c(CN5CCOCC5)c4)n3)cc12 | 0.204 µM | 1.47 µM | 0.234 µM | 1.61 µM | 0.0637 µM | 0.317 µM | 0.127 µM | 0.43 µM | 0.225 µM | 2.49 µM | 0.233 µM | 4.25 µM | 0.129 µM | 1.06 µM | 0.242 µM | 0.928 µM | 0.325 µM | 1.35 µM | 0.218 µM | > 21 µM
O=C(O)CSc1ccn(Cc2ccccc2)c1 | – | > 100 µM | – | > 100 µM | – | > 100 µM | – | > 100 µM | – | > 100 µM | – | > 100 µM | – | > 100 µM | – | > 100 µM | – | > 100 µM | – | > 100 µM
CC(CC(C)[C@H]1CCC2[C@H]3C(CC[C@@]21C)[C@@]1(C)CCC(O)C[C@H]1C[C@@H]3O)C(=O)O (stereo not given in full) | – | > 100 µM | – | > 100 µM | – | > 100 µM | – | > 100 µM | – | > 100 µM | – | > 100 µM | – | > 100 µM | – | > 100 µM | – | > 100 µM | – | > 100 µM
COc1cccc(-n2cnc3c(N/N=C/c4ccncc4)ncnc32)c1 | 12.4 µM | > 25 µM | > 14.6 µM | > 25 µM | 11.4 µM | > 25 µM | 8.2 µM | > 25 µM | 24.5 µM | > 25 µM | 13 µM | > 25 µM | > 25 µM | > 25 µM | > 25 µM | > 25 µM | > 25 µM | > 25 µM | > 25 µM | > 25 µM
COc1cc(Oc2cnc3cc(N)cc(N)c3n2)cc(OC)c1OC | 24.3 µM | 59.1 µM | > 100 µM | > 100 µM | 27.8 µM | 71.6 µM | 35.4 µM | > 100 µM | 67.3 µM | > 100 µM | 36.6 µM | > 100 µM | 23 µM | 62.6 µM | 21.9 µM | 45 µM | 21.9 µM | 45 µM | > 100 µM | > 100 µM
O=C(O)/C=C/C(=O)Nc1cccc2c1-c1ccccc1C2=O | – | 9.14 µM | – | 26.3 µM | – | 36.1 µM | – | > 100 µM | – | > 100 µM | – | > 100 µM | – | > 100 µM | – | 6.9 µM | – | 62.6 µM | – | > 57.5 µM
